Data reported in patent US20060211045A1, “Fluorescently tagged ligands” (priority 2003, published 2006).

Tests used:
[1] = biological target: T1, human A1-receptor (Homo sapiens, UniProt P30542); test: Live cell confocal imaging of ligand binding to CHO-A1 cells; assay type: cell-based; design: expressed in transfected cells; host or cells: CHO (CHO-K1) cells: CHO-A1 and CHO-A1fos; cell membranes in A1, whole or live cells in the other assays
T1 sequence (P30542 1-326): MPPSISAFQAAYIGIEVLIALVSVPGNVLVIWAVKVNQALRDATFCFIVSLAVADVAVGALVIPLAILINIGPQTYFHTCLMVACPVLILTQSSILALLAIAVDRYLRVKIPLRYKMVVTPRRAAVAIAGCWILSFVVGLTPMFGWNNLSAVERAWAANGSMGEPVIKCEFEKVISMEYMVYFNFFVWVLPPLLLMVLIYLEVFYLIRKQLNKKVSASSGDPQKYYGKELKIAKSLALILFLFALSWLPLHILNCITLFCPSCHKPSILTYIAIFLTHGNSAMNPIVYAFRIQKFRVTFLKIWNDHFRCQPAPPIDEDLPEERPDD
Protocol: Images were acquired using a Zeiss LSM510 confocal microscope using CHO-A1 cells grown to 50% confluency on 8-well Labtek™ plates in Dulbecco's
Modification of Eagle's Medium:Ham's F12 containing 5% foetal calf serum and 2 mM glutamine. Cells were washed twice with HEPES-buffered saline prior to incubation at 22° C. with compounds as indicated.
Functional studies were performed in CHO-K1 cells expressing both the human A1-AR and a c-fos-pGL3 reporter vector (CHO-A1fos cells). […] Luciferase expression was quantified using a Luclite® kit according to manufacturer's instructions. Live cell confocal imaging was carried out on CHO-A1 cells or CHO cells expressing the A1-AR tagged on the C-terminus with a green fluorescent protein (CHO-A1Tpz).

[2] = biological target: T2, human adenosine A1 receptor (A1-AR) (Homo sapiens, UniProt P30542); test: Fluorescence correlation spectroscopy (FCS) of ligand binding on CHO-A1 cells
T2 construct: expressed in transfected cells; host or cells: CHO (CHO-K1) cells: CHO-A1 and CHO-A1fos; cell membranes in A1, whole or live cells in the other assays
T2 sequence (P30542 1-326): T1 sequence (P30542 1-326)
Text: FCS is a non-invasive technique which measures fluctuations in fluorescence intensity in a confocal volume of <10^−15 l. Statistical analysis of these fluctuations gives information about the speed of diffusion (i.e. mass) and concentration of the fluorescent molecules present. Thus free ligand (fast diffusing) and bound ligand (slow diffusing) can be quantified simultaneously on a single cell. We have used FCS to measure binding of the fluorescent ligand, xanthine amine cogener-BODIPY®630/650 (XAC-BY630) to the human adenosine A1 receptor (A1-AR).
CHO cells expressing either the human A1-AR or an A1-AR-Topaz fusion were cultured on glass-bottomed 8-well plates and prepared for live cell measurement FCS measurements were made using a Zeiss Confocor 2, fitted with an Axiocam CCD camera for x-y positioning. Cells were incubated with ligands at 22° C. for the times indicated and the confocal volume was positioned on the upper membrane. Data were collected for 2×30 s, following a 15 s pre-bleach and analysed using a multi-parameter equation using Zeiss AIM software.

[3] = biological target: human adenosine A1-receptor (Homo sapiens, UniProt P30542); test: biochemical

| SMILES | Inhibition of membrane binding of XAC-BY630 (confocal imaging) ([1]; 30 min pre-incubation with DPCPX 10^−8-10^−6M, XAC-BY630 30 min, 50 nM) | Binding to membrane-localised A1-ARs (confocal imaging) ([1]; CHO-A1 cells, 22° C.) | Time after which binding was detected (confocal imaging) ([1]; XAC-BY630 25-250 nM, CHO-A1 cells) [min] | Amount of τD1 component after DPCPX preincubation ([2]; 15 nM XAC-BY630 for 30 min, DPCPX 1 μM, 30 min preincubation, n=4) [receptors/μm^2] | Amount of τD1 component ([2]; 15 nM XAC-BY630 for 30 min, no DPCPX, n=8) [receptors/μm^2] | Diffusion time τD of free ligand in buffer (FCS) ([2]; in buffer, single component, n=10) [μs] | Diffusion time τD2, very slow diffusing component (non-specific binding) ([2]; upper membrane of CHO-A1 cells, XAC-BY630 1-40 nM, 10-60 min, 61/71 cells) [ms] | Diffusion time τD1, first slow-diffusing component (receptor-bound ligand) ([2]; upper membrane of CHO-A1 cells, XAC-BY630 1-40 nM, 10-60 min, 69/71 cells) [ms] | Kb [3] [nM] |
| --- | --- | --- | --- | --- | --- | --- | --- | --- | --- |
| CCCn1c(=O)c2[nH]c(C3CCCC3)nc2n(CCC)c1=O [DPCPX, 8-cyclopentyl-1,3-dipropyl xanthine, reference compound] | concentration-dependent inhibition |  |  |  |  |  |  |  |  |
| CCCn1c(=O)c2[nH]c(-c3ccc(OCC(=O)NCCNC(=O)CCCCCNC(=O)COc4ccc(/C=C/C5=[N+]6C(=Cc7ccc(-c8cccs8)n7[B-]6(F)F)C=C5)cc4)cc3)nc2n(CCC)c1=O [XAC-BY630, xanthine amine cogener-BODIPY®630/650] |  | time- and concentration-dependent manner | 5 | 13.6±5.4 | 51.8±14.9 | 60±2 | 345 ± 41 | 17.4 ± 1.1 | 126 |
